These results are taken from patent US9937156B2, “Modulation of MRTF-A activity in pathologic fibrosis and wound healing” (The Board of Regents of the University of Texas System, priority 2013, dated 2018).

This assay relates to tail tip fibroblasts (TTFs), MRTF-A KO and WT. Kind of assay: SMA expression in tail tip fibroblasts from MRTF-A KO and WT mice. It counts as cell-based, mouse. The conditions noted are these: TGF-β1 48 hrs. The protocol: Mouse NIH/3T3 and human BR5 fibroblasts were grown as in DMEM supplemented with 10% BCS or FBS at 37° C. in a 5% CO2 incubator as previously described (Rhee et al., 2007). Primary mouse tail tip fibroblasts (TTFs) were isolated from 6- to 8-wk-old myocardin-related transcription factor (MRTF)-A−/− or wild-type littermates and cultured in DMEM supplemented with 10% FBS, nonessential amino acids, L-glutamine, and sodium pyruvate as described previously (Song et al., 2012). Once TTFs became confluent, cells were frozen in 10% DMSO containing growth media for future use before passage 3.
NIH/3T3 cells were transfected with 10 ng empty flag or flag epitope-tagged MRTF-A vector along with 100 ng smooth muscle a-actin (SMA), atrial natriuretic factor (ANF), SM22, or skeletal actin (SKA) luciferase reporter and 20 ng of β-galactosidase (β-gal) expression construct using Fugene6 (Roche). Plasmid DNA content was kept constant using empty pcDNA3.1-flag. BR5, NIH/3T3, or TTF cells were infected with adenovirus directing the expression of flag-MRTF-A, HA-MRTF-A, or β-gal as control at the multiplicity of infection (MOI) noted in the text. For experiments using chemical compounds or growth factors, cells were cultured in serum-free media (SF) for 24 h before treatment, followed by an additional 24- to 48-hr incubation in SF media treated with TGF-β1 (10 ng/mL, R&D Systems) solubilized in 4 mM HCl/1% BSA/PBS or isoxazole (20 μM) solubilized inDMSO.
Cells were treated with the indicated factor for 24 h before fixation with methanol at −20° C. for 10 min. Indirect immunofluorescence was performed by incubating with the following primary antibodies at 4° C. overnight: mouse monoclonal Cy3-conjugated anti-SMA antibody (Sigma, clone 1A4, 1:200) and rabbit monoclonal anti-HA antibody (Cell Signaling, 1:300). A secondary goat Alexa Fluor 488-conjugated anti-rabbit IgG antibody (Invitrogen, 1:200) was used to visualize HA by incubation at RT for 1 hr. All images were captured using an Olympus IX81 confocal microscope. […]

“TGF-β1: growth factor (R&D Systems) used at 10 ng/mL to stimulate fibroblast differentiation”: for the setting “MRTF-A-deficient TTFs”, the “expression of genes encoding SMC contractile proteins (SMA and SM22), qPCR and Western blot” value is on record as “blunted”. For the same substance, the SMA-positive stress fibers result (MRTF-A-deficient fibroblasts) is recorded as “did not display an enrichment”. The “morphology and SMA-positive stress fibers” value (WT fibroblasts) is “adopting an elongated morphology and producing SMA-positive stress fibers”.
